The values below come from the NIST ThermoML archive (doi:10.1021/acs.jced.8b01193).

Numbers after ± are expanded uncertainties.

Data set [1] is described as follows: Molar enthalpy of transition or fusion. The settings on record: Crystal; DSC.
The conditions of data set [2]: Crystal; DSC.

With `O=C1CCCCCCCCCCCN1` [2-azacyclotridecanone], in data set [1], the “Molar enthalpy of transition or fusion” value came out at 3.9 ± 0.12 kcal/mol. Further, the Triple point temperature in data set [2] is given as 425.95 ± 0.93 K.
